In experiment [1] the test system is CASM3C system [coronary artery smooth muscle cells+(IL-1β, TNFα and IFNγ)]. Put plainly: BioMAP CASM3C system. In kind it is cell-based, Human. An excerpt:
In this study LMW-DS was characterized by profiling in the BioMAP® Diversity PLUS panel. The BioMAP® panel consists of human primary cell-based systems designed to model different aspects of the human body in an in vitro format. The 12 systems in the BioMAP® Diversity PLUS panel (Table 32) allow test agent characterization in an unbiased way across a broad set of systems modeling various human disease states. The BioMA®P systems are constructed with one or more primary cell types from healthy human donors, with stimuli, such as cytokines or growth factors, added to capture relevant signaling networks that naturally occur in human tissue or pathological conditions. […]
Systems are derived from either single cell types or co-culture systems. […] Test agents prepared in either DMSO (small molecules; final concentration 0.1%) or PBS (biologics) are added at the indicated concentrations 1-hr before stimulation, and remain in culture for 24-hrs or as otherwise indicated (48-hrs, MyoF system; 72-hrs, BT system (soluble readouts); 168-hrs, BT system (secreted IgG)). […] Soluble factors from supernatants are quantified using either HTRF® detection, bead-based multiplex immunoassay or capture ELISA. Overt adverse effects of test agents on cell proliferation and viability (cytotoxicity) are detected by sulforhodamine B (SRB) staining, for adherent cells, and alamarBlue® reduction for cells in suspension. […]

For experiment [2], the system named is βIII-tubulin expression in human motor neurons. Put plainly: βIII-tubulin immunostaining (differentiation-related protein expression). Particulars: 48 h. In kind it is cell-based. The procedure:
Neurons were cultured as 40,000 cells per well and Schwann cells 3,000 cells per. Cells were treated after 24 hours. The number of cells per well depended on the growth phenotype, proliferative capacity, etc.
NeuroBlast was pre-warmed to 37° C. Cells were thawed in a 37° C. water bath for no longer than 2 min. 1 ml of media was gently added drop-wise. Cells were resuspended and transferred to a 15 ml tube containing 9 ml of medium. Cells were centrifuged at 200 relative centrifugal force (RCF) for 5 min. Pellet was resuspended in 5 ml of medium and cells were counted with the Cellometer. 40,000 cells per well were seeded in previously coated 96-well plates. Cells were incubated at 37° C. with 5% CO2. Cells were allowed to settle for 24 hours before drug treatment. […]
LMW-DS was prepared in the culture media of choice for each cell line and added to the respective wells in the doses 0.01 and 0.1 mg/ml. For cell survival assays cells were analyzed after 24 and 48 hours in eight identical wells/dose/time point. Differentiation and protein expression assay was analyzed after 48 hours, also in octuplicates. […]
The Acumen cytometer allows the direct cytometric analysis of attached cells without prior detachment. […] The protein content of the cells can also be directly measured and expressed as either ‘total protein content’ or ‘mean protein content’.

The text below walks through data of patent US11534457B2, “Use of dextran sulfate” (priority 2017, dated 2022).

As for “low molecular weight dextran sulfate [LMW-DS]”, in experiment [1] (CASM3C system), the Decreased biomarker activity result is listed as “VCAM-1, MIG”. The “key inflammation biomarkers including MIG, VCAM, IP-10 and ITAC” value in experiment [1] (all tested concentrations) is “decreased over all tested concentrations”. In experiment [2] (0.01 and 0.1 mg/ml), the βIII-tubulin expression entry is “significantly increased”. In addition, the “size of the majority of βIII-tubulin positive cells vs control cultures” value in experiment [2] was “smaller”.
